Laboratory results: patent US12318365B2, “Inhibition of dipeptide repeat proteins” (ALS Therapy Development Institute, priority 2019, dated 2025)
Entries after “also recorded” stand apart in the source; their conditions may differ. No end group written: not given here.

System: NSC-34 motor-neuron-like cells
Test: WST-1 assay (dysmetabolism) in NSC-34 cells
Assay type: cell-based, Mouse
Details: for reduction of metabolic activity in NSC-34 compared to CHO: DRP 30 and 3 μM, 48 h
Description: WST-1 Assay: The WST-1 assay is a colorimetric assay that measures cell metabolism. Cells with a healthy metabolism contain mitochondrial dehydrogenase enzymes that remove hydrogen atoms from certain molecules, resulting in a release of energy that the cell can use to perform critical reactions. In the WST-1 assay, a water soluble tetrazolium salt substrate (known as WST-1) is applied, which readily enters cells and their mitochondria upon application. If cells are viable, their mitochondrial dehydrogenase enzymes will catalyze the reaction to convert this WST-1 substrate to a colored product called Formazan. The production of this colored Formazan product by viable cells can be quantified using a spectrophotometer (plate reader). Higher absorbance readings correspond to greater metabolic activity/cell viability.
NSC-34 Cell Culture: NSC-34 cells (Cedarlane Laboratories, Burlington, ON, CA) were cultured in a complete medium consisting of High Glucose Dulbecco's Modified Eagle Medium (Millipore-Sigma, Burlington, MA, USA) supplemented with 10% US-origin fetal bovine serum (Thermo-Fisher Scientific, Cambridge, MA, USA), 1% 200 mM L-Glutamine solution (Thermo-Fisher Scientific, Cambridge, MA, USA), and 1% 10,000 U/mL Penicillin-Streptomycin solution (Thermo-Fisher Scientific, Cambridge, MA, USA). Prior to preparation of NSC-34 complete medium, L-Glutamine and Penicillin-Streptomycin solutions were aliquoted and stored at −20° C., and DMEM/High Glucose was stored at 4°. […] Prepared complete medium, DPBS, and Trypsin were always heated in a 37° C. water bath before use, and stored at 4° C. between uses. Cell counts for plating were performed using a Hausser Scientific cell counting chamber (Thermo-Fisher Scientific, Cambridge, MA, USA).
Proteins were reconstituted in sterile DMSO (Millipore-Sigma, Burlington, MA, USA) to stock concentrations of 10 mM, and stored at 4° C.
After reconstitution using the solvents specified in Table _, stocks were aliquoted to 15-20 μL and immediately stored at −20° C.
One row on the top and bottom of the plate, and two columns on either side of the plate, were left without cells and contained culture medium only to minimize experimental well volume evaporation. After plating, cells were incubated for 24 h at 37° C., 5% CO2 prior to DRP and/or PRMT inhibitor addition. At time of DRP/PRMT inhibitor addition, desired doses of DRP for challenge and inhibitor for treatment were achieved by diluting aliquots of each stock in warm culture medium. During experiments where both PRMT inhibitors and DRPs were used, PRMT inhibitors were always applied to wells first, and followed by DRP application. […] Inhibitor toxicity controls were included as wells treated with the desired doses of drug for the experiment, but no DRP. DRP toxicity controls were included as wells only treated with the doses of DRP used for challenge. […] Additional controls needed for each endpoint are specified in the “WST-1 Assay” and “LDH Assay” sections of these methods.
WST-1 Assay: Cells were plated and prepared using the steps described in the “Plating NSC-34 and Dosing with DRPs and PRMT Inhibitors” section of these methods. Other controls for this experiment included wells containing only cells in culture medium, and culture medium only. At time of testing, culture medium was removed from wells and replaced with a warmed, sterile-filtered solution consisting of DPBS with calcium and magnesium, and 4.5 g/L D-glucose (Millipore-Sigma, Burlington, MA, USA). To wells containing 200 μL DPBS-glucose solution, 20 μL/well WST-1 reagent (Millipore-Sigma, Burlington, MA) was applied and plates were then incubated at 37° C., 5% CO2 for 1 h before plates were read at 450 nm on a SpectraMax M3 Microplate Reader (Molecular Devices, San Jose, CA, USA). Experiments included three replicates per condition.

Molecule | reduction of metabolic activity in NSC-34 compared to CHO | abrogation of ADMe-GR15-induced dysmetabolism (3 μM ADMe-GR15 challenge, 24 h, MS023 0.1-10 μM, three repeats) | lowest dose with significant partial abrogation of dysmetabolism in GR-treated cells (3 μM GR15, 24 h, MS023 0.01-3 μM) | dose dependence of abrogation of GR15-induced dysmetabolism (3 μM GR15 challenge, 24 h, dose range of the example) | abrogation of GR-induced dysmetabolism (3 μM GR15 challenge, 24 h, inhibitor dose 3 μM) | abrogation of GR15-induced dysmetabolism (3 μM GR15 challenge, 24 h, inhibitor doses 1 and 3 μM) | relative potency against GR- vs PR-induced dysmetabolism (3 μM GR15 or PR15, 24 h, MS023 0.01-3 μM) | lowest dose with significant partial abrogation of dysmetabolism in PR-treated cells (3 μM PR15, 24 h, MS023 0.01-3 μM) | dose dependence of abrogation of PR15-induced dysmetabolism (3 μM PR15 challenge, 24 h, dose range of the example) | abrogation of PR15-induced dysmetabolism (3 μM PR15 challenge, 24 h, inhibitor doses 1 and 3 μM) | dysmetabolism independently of DRP challenge (no DRP, over all doses tested) | dysmetabolism induced by DRP challenge (DRP 10 nM-3 μM, 24 h)
PRPRPRPRPRPRPRPRPRPRPRPRPRPRPR [PR15] | significantly greater reduction of metabolic activity in NSC-34 | – | – | – | – | – | – | – | – | – | – | –
CC(C)Oc1ccc(-c2c[nH]cc2CN(C)CCN)cc1 [MS023] | – | did not abrogate | 0.1 µM | in a dose-dependent manner; also recorded: consistently dose-dependently abrogated | abrogated GR-induced dysmetabolism | completely abrogated | more potently abrogated GR-induced dysmetabolism | 0.3 µM | in a dose-dependent manner; also recorded: dose-dependently abrogated | completely abrogated | No doses of MS023 tested induced dysmetabolism; also recorded: No doses of MS023 tested produced dysmetabolism | –
GRGRGRGRGRGRGRGRGRGRGRGRGRGRGR [GR15] | significantly greater reduction of metabolic activity in NSC-34 | – | – | – | – | – | – | – | – | – | – | induced dose-dependent dysmetabolism
